This is an account of results in patent US9586947B2, “Imidazoline derivatives, preparation methods thereof, and their applications in medicine” (priority 2012, dated 2017).

One assay has as its system LNCaP cells. Put plainly: Proliferation inhibition of LNCaP cells (CCK-8). In kind it is cell-based. As to conditions: Homo sapiens, 144 h, cultured 3 + 3 days, CCK-8, OD at 450 nm. The method, then: The following in vitro assay was performed to determine the activity of the compounds of the present invention for inhibiting the proliferation of LNCaP cells.
(1). Cell counting reagent CCK-8 (DOJINDO, CK04)
See experimental procedure from Test Example 1.
After LNCaP cells were cultured for 3 days, the culture medium, test compounds, blank group, and control group were renewed with half of the liquid volume, and were cultured for another 3 days. Then, all 96-well plates were mixed gently with 10 μl of CCK-8 and cultured in an incubator for 2-3 hours under the conditions of 37° C. and 5% CO2. The OD value per well was measured at 450 nm on a Victor3 microplate reader.
(§1) IC50 values were calculated from the data of the inhibition rates of the test compounds at various concentrations.

The test system of assay [1] is PSA secretion of LNCaP cells. In words: Inhibitory activity on PSA secretion of LNCaP cells. In kind it is cell-based. As to conditions: Homo sapiens, 96 h; LNCaP cells, 1 nM testosterone medium, 4 days of incubation, PSA kit OD450; read-out: IC50 (inhibition of PSA secretion of LNCaP cells). As for the experimental part: The following in vitro assay was performed to determine the activity of the compounds of the present invention for inhibiting prostate specific antigen (PSA) secretion of LNCaP cells.
(11). Testosterone culture medium: RIPM 1640 culture medium, 10% CS-FBS, 1% Pen Strep, 1 nM testosterone
LNCaP cells were subcultured in cell culture medium, resuspended in active carbon culture medium, and then inoculated into a 96-well plate (100 μl/well) with an inoculation density of 5×10^4 cells/well.
The test compounds were dissolved in DMSO (dimethyl sulfoxide) and prepared as a 10 mM stock solution. When used, the stock solution was diluted with 5×DMSO and then diluted with a threefold gradient to obtain 8 gradient concentrations. Then, the 8 gradient concentrations were each diluted with 20× testosterone culture medium, in order to ensure DMSO concentration in each culture system was 0.5%. Diluted test compounds remained to be tested.
10 μl of diluted test compounds were added to a 96-well plate and mixed gently. 10 μl of 0.5% DMSO diluted with active carbon culture medium was added to the blank group, and 10 μl of 0.5% DMSO diluted with testosterone culture medium was added to the control group. The 96-well plate was cultured in an incubator under the conditions of 37° C. and 5% CO2.
After 4 days of incubation, 60 μl of cell cultural supernatants were collected, and the OD450 value per well was measured on a NOVO Star microplate reader using PSA kit (Abnova, KA0208).
as §1

One may read the IC50 as the concentration needed to halve the response being measured. In the case of `CC1(C)C(=O)N(c2ccc(C#N)c(C(F)(F)F)c2)C(=S)N1c1ccc(OC2CCNCC2)c(F)c1` [Example 19, 4-(3-(3-Fluoro-4-((piperidin-4-yl)oxy)phenyl)-4,4-dimethyl-5-oxo-2-thioxoimidazolidin-1-yl)-2-(trifluoromethyl)benzonitrile], the IC50 in the assay on LNCaP cells is 194 nM; in assay [1] it was 94 nM.
In the case of `CN1CCC(Oc2ccc(N3C(=S)N(c4ccc(C#N)c(C(F)(F)F)c4)C(=O)C3(C)C)cc2F)CC1` [Example 20, 4-(3-(3-Fluoro-4-((1-methylpiperidin-4-yl)oxy)phenyl)-4,4-dimethyl-5-oxo-2-thioxoimidazolidin-1-yl)-2-(trifluoromethyl)benzonitrile], the IC50 in the assay on LNCaP cells worked out at 156 nM; in assay [1], 57 nM.
For the molecule `CC1(C)C(=O)N(c2ccc(C#N)c(C(F)(F)F)c2)C(=S)N1c1ccc(O[C@@H]2CCOC2)nc1` [Example 21, (R)-4-(4,4-Dimethyl-5-oxo-3-(6-((tetrahydrofuran-3-yl)oxy)pyridin-3-yl)-2-thioxoimidazolidin-1-yl)-2-(trifluoromethyl)benzonitrile], the results for the IC50 (with LNCaP cells; in assay [1]) were 92 nM and 76 nM, respectively.
Taken in the same sequence, the figures for `CC1(C)C(=O)N(c2ccc(C#N)c(C(F)(F)F)c2)C(=S)N1c1ccc(OCCCS(C)(=O)=O)c(F)c1` [Example 22, 4-(3-(3-Fluoro-4-(3-(methylsulfonyl)propoxy)phenyl)-4,4-dimethyl-5-oxo-2-thioxoimidazolidin-1-yl)-2-(trifluoromethyl)benzonitrile] were 134 nM and 21 nM.
Taken in the same sequence, the figures for `CC1(C)C(=O)N(c2ccc(C#N)c(C(F)(F)F)c2)C(=S)N1c1ccc(OC2CCS(=O)(=O)CC2)c(F)c1` [Example 23, 4-(3-(4-((1,1-Dioxidotetrahydro-2H-thiopyran-4-yl)oxy)-3-fluorophenyl)-4,4-dimethyl-5-oxo-2-thioxoimidazolidin-1-yl)-2-(trifluoromethyl)benzonitrile] were 180 nM and 24 nM.
On to `CC1(C)C(=O)N(c2ccc(C#N)c(C(F)(F)F)c2)C(=S)N1c1ccc(O[C@H]2CCOC2)nc1` [Example 24, (S)-4-(4,4-Dimethyl-5-oxo-3-(6-((tetrahydrofuran-3-yl)oxy)pyridin-3-yl)-2-thioxoimidazolidin-1-yl)-2-(trifluoromethyl)benzonitrile], for which the IC50 came to 92 nM in the assay on LNCaP cells and 32 nM in assay [1].
The corresponding values for `CC1(C)C(=O)N(c2ccc(C#N)c(C(F)(F)F)c2)C(=S)N1c1ccc(OCC2CCOC2)nc1` (stereo not shown) [Example 25, 4-(4,4-Dimethyl-5-oxo-3-(6-((tetrahydrofuran-3-yl)methoxy)pyridin-3-yl)-2-thioxoimidazolidin-1-yl)-2-(trifluoromethyl)benzonitrile] are 111 nM and 31 nM.
Regarding `CNC(=O)c1ccccc1Oc1ccc(N2C(=S)N(c3ccc(C#N)c(C(F)(F)F)c3)C(=O)C2(C)C)cc1F` [Example 26, 2-(4-(3-(4-Cyano-3-(trifluoromethyl)phenyl)-5,5-dimethyl-4-oxo-2-thioxoimidazolidin-1-yl)-2-fluorophenoxy)-N-methylbenzamide], the IC50 stood at 201 nM in the assay with LNCaP cells and 44 nM in assay [1].
Taken in the same sequence, the figures for `CC1(C)C(=O)N(c2ccc(C#N)c(C(F)(F)F)c2)C(=S)N1c1ccc(OC2CCNC2)c(F)c1` (stereo not shown) [Example 28, 4-(3-(3-Fluoro-4-((pyrrolidin-3-yl)oxy)phenyl)-4,4-dimethyl-5-oxo-2-thioxoimidazolidin-1-yl)-2-(trifluoromethyl)benzonitrile] were 79 nM and 82 nM.
Taken in the same sequence, the figures for `CN1CCC(Oc2ccc(N3C(=S)N(c4ccc(C#N)c(C(F)(F)F)c4)C(=O)C3(C)C)cc2F)C1` (stereo not shown) [Example 29, 4-(3-(3-Fluoro-4-((1-methylpyrrolidin-3-yl)oxy)phenyl)-4,4-dimethyl-5-oxo-2-thioxoimidazolidin-1-yl)-2-(trifluoromethyl)benzonitrile] were 80 nM and 85 nM.
Taken in the same sequence, the figures for `CC1(C)C(=O)N(c2ccc(C#N)c(C(F)(F)F)c2)C(=S)N1c1ccc(OC(F)F)nc1` [Example 30, 4-(3-(6-(Difluoromethoxy)pyridin-3-yl)-4,4-dimethyl-5-oxo-2-thioxoimidazolidin-1-yl)-2-(trifluoromethyl)benzonitrile] were 58 nM and 17 nM.
Regarding `CNC(=O)COc1ccc(N2C(=S)N(c3ccc(C#N)c(C(F)(F)F)c3)C(=O)C2(C)C)cc1F` [Example 32, 2-(4-(3-(4-Cyano-3-(trifluoromethyl)phenyl)-5,5-dimethyl-4-oxo-2-thioxoimidazolidin-1-yl)-2-fluorophenoxy)-N-methylacetamide], the IC50 with LNCaP cells worked out at 134 nM; in assay [1], 110 nM.
Taken in the same sequence, the figures for `CNC(=O)C1(COc2ccc(N3C(=S)N(c4ccc(C#N)c(C(F)(F)F)c4)C(=O)C3(C)C)cc2F)CC1` [Example 34, 1-((4-(3-(4-Cyano-3-(trifluoromethyl)phenyl)-5,5-dimethyl-4-oxo-2-thioxoimidazolidin-1-yl)-2-fluorophenoxy)methyl)-N-methylcyclopropanecarboxamide] were 159 nM and 51 nM.
Taken in the same sequence, the figures for `CC1(C)C(=O)N(c2ccc(C#N)c(Cl)c2)C(=S)N1c1ccc(OCC2(N)CC2)c(F)c1` [Example 35, 4-(3-(4-((1-Aminocyclopropyl)methoxy)-3-fluorophenyl)-4,4-dimethyl-5-oxo-2-thioxoimidazolidin-1-yl)-2-chlorobenzonitrile] were 277 nM and 57 nM.
The corresponding values for `CC(=O)N1CCC(Oc2ccc(N3C(=S)N(c4ccc(C#N)c(C(F)(F)F)c4)C(=O)C3(C)C)cc2F)C1` (stereo not shown) [Example 36, 4-(3-(4-((1-Acetylpyrrolidin-3-yl)oxy)-3-fluorophenyl)-4,4-dimethyl-5-oxo-2-thioxoimidazolidin-1-yl)-2-(trifluoromethyl)benzonitrile] are 115 nM and 23 nM.
For `CC1(C)C(=O)N(c2ccc(C#N)c(C(F)(F)F)c2)C(=S)N1c1ccc(OCC2(N)CC2)cc1` [Example 37, 4-(3-(4-((1-Aminocyclopropyl)methoxy)phenyl)-4,4-dimethyl-5-oxo-2-thioxoimidazolidin-1-yl)-2-(trifluoromethyl)benzonitrile], the IC50 in the assay on LNCaP cells is 63 nM; in assay [1], 23 nM.
Consider `CC1(C)C(=O)N(c2ccc(C#N)c(C(F)(F)F)c2)C(=S)N1c1ccc(OCC2(C#N)CC2)c(F)c1` [Example 39, 4-(3-(4-((1-Cyanocyclopropyl)methoxy)-3-fluorophenyl)-4,4-dimethyl-5-oxo-2-thioxoimidazolidin-1-yl)-2-(trifluoromethyl)benzonitrile], for which the IC50 in the assay on LNCaP cells is 256 nM; in assay [1], 27 nM.
The corresponding values for `CC1(C)C(=O)N(c2ccc(C#N)c(C(F)(F)F)c2)C(=S)N1c1ccc(OC2COC2)cc1` [Example 40, 4-(4,4-Dimethyl-3-(4-((oxetan-3-yl)oxy)phenyl)-5-oxo-2-thioxoimidazolidin-1-yl)-2-(trifluoromethyl)benzonitrile] are 196 nM and 29 nM.
Taken in the same sequence, the figures for `CC1(C)C(=O)N(c2ccc(C#N)c(C(F)(F)F)c2)C(=S)N1c1ccc(OC2COC2)c(F)c1` [Example 41, 4-(3-(3-Fluoro-4-((oxetan-3-yl)oxy)phenyl)-4,4-dimethyl-5-oxo-2-thioxoimidazolidin-1-yl)-2-(trifluoromethyl)benzonitrile] were 283 nM and 24 nM.
Taken in the same sequence, the figures for `CC1(C)C(=O)N(c2ccc(C#N)c(C(F)(F)F)c2)C(=S)N1c1ccc(OCC(O)CO)cc1` (stereo not shown) [Example 48, 4-(3-(4-(2,3-Dihydroxypropoxy)phenyl)-4,4-dimethyl-5-oxo-2-thioxoimidazolidin-1-yl)-2-(trifluoromethyl)benzonitrile] were 281 nM and 37 nM.
